Test results taken from PMC5104186 (Cell reports, 2016).

Key:
[1] = target: human GAD67 (hGAD67) (Homo sapiens, UniProt Q99259); test: biochemical
[2] = test system: α1β1γ2 GABA-A receptor; conditions: agonist; nH 1.3
[3] = test system: α5β1γ2 GABA-A receptor; conditions: agonist; +50 mV; nH 1.8

Chain of human GAD67 (hGAD67) (Q99259 whole entry): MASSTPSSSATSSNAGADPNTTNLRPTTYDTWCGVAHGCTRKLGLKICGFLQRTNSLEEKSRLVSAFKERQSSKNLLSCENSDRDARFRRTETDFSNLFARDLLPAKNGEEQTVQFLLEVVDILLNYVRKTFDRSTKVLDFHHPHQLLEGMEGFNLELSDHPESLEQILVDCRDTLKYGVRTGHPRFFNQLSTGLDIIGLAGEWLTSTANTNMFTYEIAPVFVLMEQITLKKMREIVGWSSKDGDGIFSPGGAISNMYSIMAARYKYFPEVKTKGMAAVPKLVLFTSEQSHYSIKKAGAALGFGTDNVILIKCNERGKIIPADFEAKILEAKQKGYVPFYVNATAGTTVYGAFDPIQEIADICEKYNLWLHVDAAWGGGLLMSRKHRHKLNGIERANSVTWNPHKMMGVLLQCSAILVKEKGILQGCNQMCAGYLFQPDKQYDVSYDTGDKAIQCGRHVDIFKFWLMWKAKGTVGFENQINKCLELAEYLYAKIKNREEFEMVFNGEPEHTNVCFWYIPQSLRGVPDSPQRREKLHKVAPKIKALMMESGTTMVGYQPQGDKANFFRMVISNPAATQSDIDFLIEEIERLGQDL

SMILES: O=C(O)[C@@H]1CCCN1 [L-proline]
- Ki [1]: 7.8 mM
- EC50 [2]: 8.3 mM
- EC50 [3]: 5.4 mM
